US20060189590A1, “Alkaline salts of proton pump inhibitors” (priority 2003, published 2006)

Columns and labels:
Assay type in all cases: physicochemical
[1] = Storage stability under atmospheric conditions at 60-70° C. (by-products, HPLC purity)
Text: The compounds according to the invention and their hydrates can be used for the treatment and prevention of all disorders, which can be treated or prevented by using PPI. In particular, the compounds according to the invention and their hydrates can be used for treating gastric disorders. In this context particular mention should be made of the relatively high stability of compounds according to the invention and their hydrates. […] This relatively high storage stability makes the compounds according to the invention and their hydrates particularly suitable for use in medicaments.

[2] = Storage stability at 70° C. for one week (discolouration, decomposition); conditions: for stability, discolouration and decomposition on storage: 70° C., one week, identical conditions for both salts
[3] = Dissolution compared with racemic pantoprazole magnesium dihydrate

Structure (SMILES) | purity (according to HPLC) before storage ([1]; start value) [%] | purity (according to HPLC) after storage ([1]; storage under atmospheric conditions at 60-70° C.) | stability, discolouration and decomposition on storage [2] | stability properties / stable storage form (general statement) ([2]; compared to the sodium salt of (−)-pantoprazole) | sum of by-products on storage ([1]; storage under atmospheric conditions, 60-70° C.) | dissolution [3]
COc1ccnc(C[S+]([O-])c2nc3cc(OC(F)F)ccc3[n-]2)c1OC.[Na+] (single isomer, unassigned; (-)) [(−)-pantoprazole sodium] | 99.5 | 96-97% | changes to brown, with formation of considerable amounts of decomposition products | does not form a stable storage form | – | –
COc1ccnc(C[S+]([O-])c2nc3cc(OC(F)F)ccc3[n-]2)c1OC.O.[Mg+2].[OH-] (stereo not drawn) [Example 2, Magnesium (−)-{[5-(difluoromethoxy)]-2-[(3,4-dimethoxy-2-pyridinyl)methylsulphinyl]-1H-benzimidazolide}hydroxy monohydrate] | – | – | completely stable for one week and shows virtually no discolouration or decomposition | – | remains virtually constant | faster dissolution than the racemic pantoprazole magnesium dihydrate
